Results on 13 compounds are retold here after PubChem BioAssay (NCI).

Some test systems named below: M14 melanoma; MDA-MB-435; HT29 colon; BT-549 breast; NCI-H522 lung; MDA-MB-231 breast; NCI-H23 lung; MALME-3M melanoma; A498 renal; LOX IMVI melanoma.
Assay in all cases: inhibition of tumour cell growth, NCI panel, 48 h

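Following 48 hours of exposure in 96-well plates, responses at five concentrations were used to interpolate endpoints linearly. GI50 marks 50% less growth. TGI is the concentration that stops growth completely.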

On to `Cc1ccc(-c2nnc(-c3ccc4ccccc4c3)o2)cc1`, for which the TGI was over 93.2 µM in the assay with M14 melanoma; over 100 µM in the assay on MDA-MB-435; over 100 µM with HT29 colon; over 93.5 µM in the assay with BT-549 breast; over 100 µM with NCI-H522 lung; over 100 µM with MDA-MB-231 breast. Besides, the TGI in the assay with NCI-H23 lung is over 100 µM; in the assay on MALME-3M melanoma, over 88.9 µM; in the assay on A498 renal, over 100 µM; with LOX IMVI melanoma, over 100 µM.

`CCCCCCCC(=O)SCC/C=C/[C@@H]1CC(=O)NCc2cccc(n2)C2=N[C@@](C)(CS2)C(=O)N[C@@H](C(C)C)C(=O)N1`: the GI50 in the assay with M14 melanoma is 1.32 µM; with MDA-MB-435, 0.739 µM; in the assay with HT29 colon, 0.181 µM; in the assay on BT-549 breast, 5.04 µM; with NCI-H522 lung, 0.12 µM; in the assay on MDA-MB-231 breast, 2.08 µM. For the same compound, the GI50 in the assay on NCI-H23 lung is 2.1 µM; with MALME-3M melanoma, 0.142 µM; with A498 renal it was 0.394 µM; in the assay with LOX IMVI melanoma, 0.774 µM. The TGI in the assay with M14 melanoma was over 33.3 µM; with MDA-MB-435, over 33.3 µM; in the assay on HT29 colon, 7.23 µM; with BT-549 breast, over 33.3 µM; in the assay with NCI-H522 lung, 1.85 µM; in the assay with MDA-MB-231 breast, over 33.3 µM. In addition, the TGI was over 33.3 µM in the assay with NCI-H23 lung, 2.37 µM with MALME-3M melanoma, 6.2 µM with A498 renal and 4.01 µM in the assay with LOX IMVI melanoma.

As to `O=C(O)c1cc(C(=O)O)cc(N2C(=O)c3ccccc3C2=O)c1`, the TGI with M14 melanoma, in the assay on MDA-MB-435, in the assay with HT29 colon, in the assay on BT-549 breast, in the assay on NCI-H522 lung and with MDA-MB-231 breast was over 100 µM each time. Further, the TGI with NCI-H23 lung, with MALME-3M melanoma, in the assay with A498 renal and in the assay with LOX IMVI melanoma was over 100 µM throughout.

Turning to `CSc1ccccc1C#C/C=C\C#Cc1ccccc1N1CCCC1=O`, the GI50 in the assay with M14 melanoma is over 12.3 µM; in the assay with HT29 colon it was over 10.4 µM; with NCI-H23 lung, over 12.7 µM; with A498 renal it was over 50 µM. Besides, the TGI in the assay on M14 melanoma was over 50 µM; in the assay with MDA-MB-435 it was over 13.9 µM; with HT29 colon, over 50 µM; with BT-549 breast, over 45.4 µM; in the assay with NCI-H522 lung it was over 50 µM; with MDA-MB-231 breast, over 50 µM. For the same compound, the TGI in the assay with NCI-H23 lung, in the assay with MALME-3M melanoma, in the assay with A498 renal and with LOX IMVI melanoma was over 50 µM throughout.

With `O=C(CCl)N1c2ccccc2Oc2ccc3ccccc3c21`, the GI50 is 1.14 µM with M14 melanoma; 0.577 µM in the assay with MDA-MB-435; 0.432 µM in the assay on HT29 colon; 1.79 µM in the assay on BT-549 breast; 0.614 µM in the assay with NCI-H522 lung; 1.28 µM in the assay with MDA-MB-231 breast. The GI50 with NCI-H23 lung was 1.31 µM; with MALME-3M melanoma, 1.33 µM; in the assay with A498 renal, 2.44 µM; in the assay on LOX IMVI melanoma, 0.347 µM. The TGI in the assay with M14 melanoma was 2.56 µM; with MDA-MB-435, 1.88 µM; in the assay with HT29 colon, 1.51 µM; in the assay on BT-549 breast, 3.56 µM; in the assay with NCI-H522 lung, 1.9 µM; with MDA-MB-231 breast, 2.81 µM. Also, the TGI in the assay with NCI-H23 lung is 3.08 µM; in the assay on MALME-3M melanoma it was 2.91 µM; with A498 renal it was 6.97 µM; in the assay with LOX IMVI melanoma it was 1.41 µM.

For `O=C1c2cccnc2-c2nc(-c3ccccc3[N+](=O)[O-])cc3c2c1nc1ccccc13`, the GI50 in the assay on M14 melanoma is 2.99 µM; in the assay on MDA-MB-435, 7.1 µM; with HT29 colon it was 17.2 µM; in the assay on BT-549 breast it was 16.7 µM; with NCI-H522 lung, 2.1 µM; in the assay on MDA-MB-231 breast, 3.89 µM. Also, the GI50 was 3.67 µM in the assay with NCI-H23 lung, 3.11 µM with MALME-3M melanoma, over 77.3 µM with A498 renal and 2.84 µM with LOX IMVI melanoma. Besides, the TGI in the assay on M14 melanoma is 10.7 µM; in the assay with MDA-MB-435 it was 22.2 µM; in the assay on HT29 colon, 33.2 µM; in the assay with BT-549 breast it was 73.2 µM; with NCI-H522 lung, 6.4 µM; with MDA-MB-231 breast, over 100 µM. For the same compound, the TGI in the assay on NCI-H23 lung was 18.9 µM; in the assay on MALME-3M melanoma, 14.8 µM; in the assay on A498 renal, over 100 µM; in the assay on LOX IMVI melanoma, 13.7 µM.

Turning to `Cc1cc2nc(C(Cl)Cl)nc(-c3ccc(Cl)cc3)n2n1`, the GI50 with M14 melanoma is 1.31 µM; in the assay with MDA-MB-435, 1.26 µM; in the assay with HT29 colon it was 0.36 µM; in the assay on BT-549 breast it was 2.75 µM; in the assay with NCI-H522 lung, 1.56 µM; with MDA-MB-231 breast it was 1.23 µM. In addition, the GI50 in the assay with NCI-H23 lung is 0.479 µM; in the assay on MALME-3M melanoma, 1.48 µM; in the assay with A498 renal, 1.09 µM; in the assay on LOX IMVI melanoma it was 3.95 µM. Moreover, the TGI is 3.25 µM in the assay with M14 melanoma; 2.79 µM in the assay with MDA-MB-435; 3.99 µM with HT29 colon; over 100 µM with BT-549 breast; 5.23 µM in the assay with NCI-H522 lung; 4.21 µM with MDA-MB-231 breast. The TGI with NCI-H23 lung is 2.42 µM; in the assay on MALME-3M melanoma, 2.99 µM; in the assay with A498 renal it was 2.65 µM; in the assay on LOX IMVI melanoma, over 100 µM.

In the case of `Cc1cc(=O)n2[nH]c(-c3ccc(C(C)(C)C)cc3)cc2n1`, the GI50 in the assay with M14 melanoma was 12.7 µM; with MDA-MB-435 it was 5.44 µM; with HT29 colon it was 5.12 µM; with BT-549 breast, 17.4 µM; in the assay with NCI-H522 lung it was 3.42 µM; in the assay on MDA-MB-231 breast, 13 µM. The GI50 in the assay with NCI-H23 lung was 4.03 µM; with MALME-3M melanoma, 2.76 µM; in the assay on A498 renal, 1.54 µM; in the assay with LOX IMVI melanoma, 7.39 µM. Further, the TGI in the assay with M14 melanoma is over 100 µM; with MDA-MB-435 it was over 100 µM; in the assay with HT29 colon it was over 100 µM; in the assay with BT-549 breast, over 100 µM; with NCI-H522 lung, 43 µM; in the assay with MDA-MB-231 breast it was over 100 µM. Also, the TGI turned out to be 80.6 µM in the assay on NCI-H23 lung, 29 µM with MALME-3M melanoma, 36.9 µM in the assay with A498 renal and 61.6 µM in the assay with LOX IMVI melanoma.

In the case of `O=C(Nc1ccc(F)cc1F)c1cc(I)ccc1O`, the GI50 was 2.21 µM in the assay with M14 melanoma; 3.02 µM with MDA-MB-435; 4.06 µM in the assay with HT29 colon; 1.99 µM in the assay on BT-549 breast; 2.73 µM in the assay with NCI-H522 lung; 1.87 µM with MDA-MB-231 breast. The GI50 with NCI-H23 lung was 2.72 µM; in the assay with MALME-3M melanoma it was 2.08 µM; with A498 renal, 1.45 µM; in the assay on LOX IMVI melanoma it was 3.31 µM. The TGI is 8.05 µM with M14 melanoma; 10.1 µM with MDA-MB-435; over 100 µM in the assay on HT29 colon; 5.16 µM in the assay on BT-549 breast; 14.1 µM in the assay on NCI-H522 lung; 5.8 µM in the assay on MDA-MB-231 breast. Also, the TGI with NCI-H23 lung was 10.4 µM; in the assay on MALME-3M melanoma it was 6.45 µM; in the assay with A498 renal, 3.31 µM; with LOX IMVI melanoma it was 17.6 µM.

Take `COc1ccc2c(c1)C(=O)/C(=C/c1ccc(OCC(=O)Nc3nccs3)cc1)O2`: the GI50 was 3.03 µM in the assay with M14 melanoma; 10.7 µM with MDA-MB-435; 5.31 µM in the assay with HT29 colon; 3.86 µM with BT-549 breast; 0.191 µM in the assay on NCI-H522 lung; 0.748 µM in the assay on MDA-MB-231 breast. Further, the GI50 is 0.711 µM in the assay with NCI-H23 lung, 0.858 µM with MALME-3M melanoma, 7.99 µM in the assay on A498 renal and 0.057 µM in the assay on LOX IMVI melanoma. Moreover, the TGI came out at 13.5 µM in the assay on M14 melanoma; 46.8 µM in the assay with MDA-MB-435; 29.2 µM in the assay on HT29 colon; 15.3 µM in the assay on BT-549 breast; 0.393 µM in the assay on NCI-H522 lung; 5.78 µM with MDA-MB-231 breast. Further, the TGI in the assay on NCI-H23 lung was determined as 19.9 µM; with MALME-3M melanoma it was 4.15 µM; in the assay on A498 renal, 26.2 µM; with LOX IMVI melanoma it was 0.108 µM.

Take `COc1cc(/C=C/c2cc(/C=C/c3ccc(O)c(OC)c3)n(C(=O)Nc3ccc(F)cc3)n2)ccc1O`: the GI50 in the assay on M14 melanoma was 0.46 µM; with MDA-MB-435, 0.214 µM; with HT29 colon, 2.03 µM; in the assay on BT-549 breast, 1.18 µM; in the assay with NCI-H522 lung, 0.25 µM; with MDA-MB-231 breast, 2.16 µM. Besides, the GI50 with NCI-H23 lung was 0.727 µM; in the assay with MALME-3M melanoma it was 0.743 µM; in the assay with A498 renal, 2.42 µM; with LOX IMVI melanoma it was 0.476 µM. Besides, the TGI in the assay with M14 melanoma is 7.5 µM; in the assay with MDA-MB-435, 0.561 µM; with HT29 colon it was 4.69 µM; in the assay with BT-549 breast, over 19.7 µM; with NCI-H522 lung, 1.21 µM; in the assay with MDA-MB-231 breast, over 65.3 µM. For the same compound, the TGI is 4.45 µM in the assay on NCI-H23 lung, 7.85 µM in the assay with MALME-3M melanoma, 6.46 µM in the assay on A498 renal and 4.26 µM in the assay with LOX IMVI melanoma.

Take `O[C@H]1[C@H]2c3cc4c(cc3CN3CCC(=C[C@@H]1O)[C@H]23)OCO4`: the TGI stood at 8.2 µM with M14 melanoma; 7.87 µM in the assay with MDA-MB-435; 30.6 µM in the assay on HT29 colon; 5.43 µM in the assay with BT-549 breast; 3.07 µM with NCI-H522 lung; 10.2 µM in the assay with MDA-MB-231 breast. Also, the TGI stood at 13.7 µM in the assay with NCI-H23 lung, 10.7 µM in the assay on MALME-3M melanoma, 12.8 µM in the assay with A498 renal and 5.06 µM in the assay on LOX IMVI melanoma.

Consider `Cc1cc(=O)[nH]c2cc3oc4ccccc4c3cc12`, for which the TGI with M14 melanoma, with MDA-MB-435, in the assay on HT29 colon, with BT-549 breast, with NCI-H522 lung and with MDA-MB-231 breast was over 100 µM each time. Besides, the TGI in the assay on NCI-H23 lung, in the assay on MALME-3M melanoma, in the assay on A498 renal and with LOX IMVI melanoma was over 100 µM throughout.
